What follows are compounds tested against T1, human GPR40 (Homo sapiens, UniProt O14842) (assay: Inositol Phosphate Turnover (IP1) Assay). Conditions: HEK cells stably expressing human GPR40; CisBio IP-One kit; 60 minutes at 37 degrees; read-out: Human IP1 EC50.
T1 construct: expressed in transfected cells
Format: cell-based
Outline: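 HEK cells stably expressing GPR40, plated 16 h, then exposed to compound in stimulation buffer for 60 min at 37 °C. IP1 accumulation read by HTRF IP-One detection after 60 min at RT.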

T1 sequence (O14842 whole entry): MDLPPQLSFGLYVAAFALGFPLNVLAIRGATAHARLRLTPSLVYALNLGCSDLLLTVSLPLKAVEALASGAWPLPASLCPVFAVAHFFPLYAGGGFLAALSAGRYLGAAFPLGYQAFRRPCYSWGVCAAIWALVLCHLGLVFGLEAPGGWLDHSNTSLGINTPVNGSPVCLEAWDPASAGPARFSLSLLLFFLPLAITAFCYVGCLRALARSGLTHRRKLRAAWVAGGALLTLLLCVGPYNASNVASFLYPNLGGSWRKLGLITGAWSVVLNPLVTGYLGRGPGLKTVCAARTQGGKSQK

Row | Compound | EC50 [nM]
1 | CC(c1cc(C(F)(F)F)ccc1C1CC1)N1CCC2(CCc3ccc([C@H](C4CC4)[C@H](C)C(=O)O)cc3O2)CC1 (single isomer, unassigned) [Example 13, sodium (2S,3R)-3-cyclo-propyl-3-(1′-((R or S)-1-(2-cyclopropyl-5-(trifluoromethyl)phenyl)ethyl)spiro[chroman-2,4′-piperidin]-7-yl)-2-methylpropanoale] | 3.6
2 | C[C@H](C(=O)O)[C@H](c1ccc2c(c1)OC1(CC2)CCN(S(=O)(=O)c2ccc(Cl)cc2Cl)CC1)C1CC1 [Example 45] | 148
3 | CC(c1cc(Cl)ccc1OC(F)(F)F)N1CCC2(CCc3ccc([C@H](C4CC4)[C@H](C)C(=O)O)c(F)c3O2)CC1 (stereo partly drawn) [Example 21, (2S,3R)-3-(1′-(1-(5-chloro-2-(trifluoromethoxy)phenyl)ethyl)-8-fluorospiro[chroman-2,4′-piperidin]-7-yl)-3-cyclopropyl-2-methylpropanoic Acid] | 3.66
4 | CC(c1ncccc1C(F)(F)F)N1CCC2(CCc3ccc([C@H](C4CC4)[C@H](C)C(=O)O)cc3O2)CC1 (single isomer, unassigned) [Example 44, (2S,3R)-3-cyclo-propyl-2-methyl-3-(1′-((R or S)-1-(3-(trifluoromethyl)pyridin-2-yl)ethyl)spiro-[chroman-2,4′-piperidin]-7-yl)propanoic acid] | 311
5 | C[C@H](C(=O)O)[C@H](c1ccc2c(c1)OC1(CC2)CCN(c2cncc(C(F)(F)F)c2)CC1)C1CC1 [Example 39, (2S,3R)-3-cyclopropyl-2-methyl-3-(1′-(5-(trifluoromethyl)pyridin-3-yl)Spiro [chroman-2,4′-piperidin]-7-yl)propanoic Acid] | 566
6 | C[C@H](C(=O)O)[C@H](c1ccc2c(c1)OC1(CC2)CCN(c2ccccc2C(F)(F)F)CC1)C1CC1 [Example 35, sodium (2S,3R)-3-cyclopropyl-2-methyl-3-(1′-(2-(trifluoromethyl)phenyl)-spiro[chroman-2,4′-piperidin]-7-yl)propanoate] | 5.79
7 | C[C@H](C(=O)O)[C@H](c1ccc2c(c1)OC1(CC2)CCN(Cc2cc(C(F)(F)F)cc(Cl)c2F)CC1)C1CC1 [Example 24, (2S,3R)-3-(1′-(3-chloro-2-fluoro-5-(trifluoromethyl)benzyl)spiro[chroman-2,4′-piperidin]-7-yl)-3-cyclopropyl-2-methylpropanoic Acid] | 11.2

Further lines, results first:

Row | EC50 [nM] | Compound
8 | 91.6 | Cc1cc(-c2ccc(OC(F)(F)F)c(C(C)N3CCC4(CCc5ccc([C@H](C6CC6)[C@H](C)C(=O)O)cc5O4)CC3)c2)n(C)n1 (mixture of isomers) [Example 114, (2S,3R)-3-cyclopropyl-3-(1′-((RS)-1-(5-(1,3-dimethyl-1H-pyrazol-5-yl)-2-(trifluoromethoxy)phenyl)eth-yl)spiro[chroman-2,4′-piperidin]-7-yl)-2-methylpropanoic acid]
9 | 995 | C[C@H](C(=O)O)[C@H](c1ccc2c(c1)OC1(CC2)CCN(Cc2cn(C)nc2C(F)(F)F)CC1)C1CC1 [Example 72, (2S,3R)-3-cyclopropyl-2-methyl-3-(1′-((1-methyl-3-(trifluoromethyl)-1H-pyrazol-4-yl)methyl)spiro[chroman-2,4′-piperidin]-7-yl)propanoic Acid]
10 | 8.62 | C[C@H](C(=O)O)[C@H](c1ccc2c(c1)OC1(CC2)CC(N[C@H](C)c2cc(C(F)(F)F)ccc2C(F)(F)F)C1)C1CC1 (stereo partly drawn) [Example 91, (2S,3R)-3-(3′-((1-(2,5-bis(trifluoromethyl)phenyl)ethyl)amino)spiro[chroman-2,1′-cyclobutan]-7-yl)-3-cyclopropyl-2-methylpropanoic Acid]
11 | 11.2 | C[C@H](C(=O)O)[C@H](c1ccc2c(c1)OC1(CC2)CCN([C@@H](C)c2cc(F)ccc2OC(F)(F)F)CC1)C1CC1 [Example 132, Sodium (2S,3R)-3-cyclopropyl-3-(1′-((S)-1-(5-fluoro-2-(trifluoromethoxy)phenyl)ethyl)spiro[chromane-2,4′-piperidin]-7-yl)-2-methylpropanoate]

Reference: patent US10968232B2 (Merck Sharp & Dohme Corp., priority 2016, dated 2021)
